How the values were obtained:
[1] = biological target: T1, Diacylglycerol kinase alpha [9-727] (Homo sapiens, UniProt P23743); test: In Vitro DGK Inhibition Assay
T1 construct: 9-727
Experimental: (§1) The DGKα (Full Length and Near Full Length) ADP Glo assays were performed using an extruded liposome prep at either 5% DAG or 10% DAG. The Enzymatic reactions were carried out in 50 mM MOPS pH 7.5, 100 mM NaCl, 10 mM MgCl2, 1 μM CaCl2, and 1 mM DTT (assay buffer). The lipid substrate concentrations were 1.9 mM PS, either 0.25 mM DAG (5% liposome prep) or 0.5 mM DAG (10% liposome prep), and 2.7 mM PC for the extruded liposome reactions. […] A 5 mL enzyme/substrate (substrate being the 5× or 10× liposome preparation) solution at 2× final reaction concentrations was prepared by combining 5 ml of the extruded liposome preparation with 10 nM (2× final) DGKα(Near Full Length) or DGKα(Full Length) prepared as described below) and incubated at room temperature for 10 minutes. Next, 1 μL of the 2× enzyme/substrate solution was added to wells containing the test compound and reactions were initiated with the addition of 1 μL 300 uM ATP. Substrate only was added to DMSO only wells for background measurements. The reactions were allowed to proceed for 1 hr, after which 2 μL Glo Reagent (Promega V9101) was added and incubated for 40 minutes. Next, 4 μL Kinase Detection Reagent was added and incubated for 30 minutes. Luminescence was recorded using an EnVision microplate reader. […] The compounds were evaluated at 11 concentrations to determine IC50.

[2] = biological target: Diacylglycerol kinase alpha (Homo sapiens, UniProt P23743); test: In Vitro DGK Inhibition Assay
Chain of Diacylglycerol kinase alpha (P23743 whole entry): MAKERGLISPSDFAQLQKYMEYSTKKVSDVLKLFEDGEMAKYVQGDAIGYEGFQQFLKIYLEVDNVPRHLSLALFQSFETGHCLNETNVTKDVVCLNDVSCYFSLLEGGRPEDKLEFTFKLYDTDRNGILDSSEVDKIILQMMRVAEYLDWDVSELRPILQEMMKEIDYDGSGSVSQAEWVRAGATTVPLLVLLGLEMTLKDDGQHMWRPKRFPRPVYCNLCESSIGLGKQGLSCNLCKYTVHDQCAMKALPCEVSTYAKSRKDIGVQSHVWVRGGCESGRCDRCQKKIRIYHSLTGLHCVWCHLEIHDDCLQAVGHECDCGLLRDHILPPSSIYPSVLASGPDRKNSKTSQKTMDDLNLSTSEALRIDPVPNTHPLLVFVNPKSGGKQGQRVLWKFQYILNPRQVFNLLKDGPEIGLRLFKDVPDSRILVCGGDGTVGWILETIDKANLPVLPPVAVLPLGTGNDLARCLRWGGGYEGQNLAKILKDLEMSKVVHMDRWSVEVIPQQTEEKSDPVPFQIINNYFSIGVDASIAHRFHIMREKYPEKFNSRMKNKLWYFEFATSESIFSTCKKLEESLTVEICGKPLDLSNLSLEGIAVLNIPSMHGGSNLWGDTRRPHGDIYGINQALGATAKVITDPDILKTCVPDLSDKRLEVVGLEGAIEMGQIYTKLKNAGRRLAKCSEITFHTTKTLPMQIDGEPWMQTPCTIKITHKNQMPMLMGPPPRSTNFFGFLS
Experimental: as §1

T1 sequence (P23743 whole entry): as above

| Compound | IC50 [1] | IC50 [2] |
| --- | --- | --- |
| CN(Cc1nnnn1-c1cc(C#N)cc([N+](=O)[O-])c1)C1CCCCC1 [US20260049068, Example 27] | 0.48 µM | – |
| CN(Cc1nnnn1-c1cccc([N+](=O)[O-])c1)C1CCOC1 (centres undefined) [US20260049068, Example 40] | – | 55 µM |
| CN(Cc1nnnn1-c1cccc([N+](=O)[O-])c1)C1CC1 [US20260049068, Example 44] | – | 180 µM |
| N#Cc1nc(-n2nnnc2CN(CC(O)c2ccccc2)C2CCCCC2)ccc1Cl (centres undefined) [US20260049068, Example 57] | – | 120 µM |
| N#Cc1nc(-n2nnnc2CN(Cc2ccccc2)[C@@H]2CCCC[C@H]2O)ccc1Cl [US20260049068, Example 58] | – | 60 µM |

Results, then the molecule that gave them:

| IC50 [1] | IC50 [2] | Compound |
| --- | --- | --- |
| 1.2 µM | 2.7 µM | CC1CCC(N(C)Cc2nnnn2-c2cccc([N+](=O)[O-])c2)CC1 (centres undefined) [US20260049068, Example 2] |
| 1.6 µM | 1.2 µM | C=CCN(Cc1nnnn1-c1ccc(Cl)c(C#N)n1)C1CCCCC1 [US20260049068, Example 17] |
| 0.12 µM | 0.06 µM | CN(Cc1nnnn1-c1ccc(Cl)c([N+](=O)[O-])c1)C1CCCCC1 [US20260049068, Example 28] |
| – | 15 µM | CN(Cc1nnnn1-c1cccc([N+](=O)[O-])c1)C1CCOCC1 [US20260049068, Example 38] |
| – | 35 µM | CN(Cc1nnnn1-c1cccc([N+](=O)[O-])c1)C1CCN(C(=O)OC(C)(C)C)C1 (centres undefined) [US20260049068, Example 39] |
| – | 32 µM | CC(C)CN(C)Cc1nnnn1-c1cccc([N+](=O)[O-])c1 [US20260049068, Example 42] |

Source: BindingDB's records for patent US20260049068 (Bristol Myers Squibb, 2026)
